Earlier results, collected in US20090306094A1 (Bristol-Myers Squibb Company, priority 2006, published 2009).
pIC50: −log10 of the molar value. Counter-ions that a name gives are not always drawn. Like-named read-outs stand apart in the source and are kept apart here.

What was measured:
[1] = tested on: leukemic versus normal hematopoietic cells
[2] = tested on: Crkl phosphorylation in primary CML patient cells; settings: correlated with dephosphorylation of BCR-ABL
[3] = tested on: CML patients
[4] = tested on: imatinib-resistant BCR-ABL mutants; settings: number of mutants / number tested
[5] = tested on: wild-type BCR-ABL
[6] = tested on: imatinib-resistant BCR-ABL mutants
[7] = molecular target: T1, BCR-ABL (Homo sapiens, UniProt P00519)
T1 construct: BCR (N-terminal part of breakpoint cluster region protein, P11274); the other entry of the earlier key: BCR (P11274, Breakpoint cluster region protein)
T1 sequence (P00519 242-493 limits assumed): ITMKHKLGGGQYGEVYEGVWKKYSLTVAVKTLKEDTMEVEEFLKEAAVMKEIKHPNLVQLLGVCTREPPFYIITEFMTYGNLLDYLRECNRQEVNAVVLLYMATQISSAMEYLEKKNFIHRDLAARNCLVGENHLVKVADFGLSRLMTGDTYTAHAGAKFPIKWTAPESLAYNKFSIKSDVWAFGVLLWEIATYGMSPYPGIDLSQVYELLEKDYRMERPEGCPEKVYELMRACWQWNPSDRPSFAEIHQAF

[8] = tested on: BCR-ABL expressing leukemic cells
[9] = tested on: imatinib-resistant BCR-ABL mutants; remark: listed apart in the source
[10] = tested on: cells expressing imatinib-resistant BCR-ABL kinases
[11] = tested on: CML cell

## Cc1ccc(NC(=O)c2ccc(CN3CCN(C)CC3)cc2)cc1Nc1nccc(-c2cccnc2)n1 [imatinib, imatinib mesylate]
[1]
  selectivity for leukemic versus normal hematopoietic cells: highly selective
[2]
  Crkl phosphorylation: inhibited in a dose-dependent manner
[3]; blastic phase
  estimated 2-year incidence of resistance: 80%
[3]; chronic phase post-interferon-α failure
  estimated 2-year incidence of resistance: 10%

## Cc1cn(-c2cc(NC(=O)c3ccc(C)c(Nc4nccc(-c5cccnc5)n4)c3)cc(C(F)(F)F)c2)cn1 [AMN107]
[4]
  imatinib-resistant BCR-ABL mutants against which significantly active: 32/33
[5]
  pIC50: […]

## CP(C)(=O)c1ccc(Nc2nc(C3CCCC3)nc3c2ncn3CCc2cccc(O)c2)cc1 [AP23464]
[6]
  inhibition of imatinib-resistant BCR-ABL mutants: inhibit imatinib-resistant BCR-ABL mutants

## Cc1cc(Nc2ncc3cc(-c4c(Cl)cccc4Cl)c(=O)n(C)c3n2)ccc1F [PD180970]
[7]
  inhibition of BCR-ABL: inhibit BCR-ABL
[8]
  apoptosis: induce apoptosis

## Cc1ccc(NC(=O)c2ccc(CN3CC[C@H](N(C)C)C3)c(C(F)(F)F)c2)cc1Nc1nccc(-c2cncnc2)n1 [NS-187]
[9]
  inhibition of imatinib-resistant BCR-ABL mutants: inhibit imatinib-resistant BCR-ABL mutants

## COCCNCCOc1ccc(-n2cc(-c3cccc(OC)c3)c3c(N)ncnc32)cc1 [CGP76030]
[10]
  growth and survival of cells: inhibit the growth and survival

## COc1cc(Nc2c(C#N)cnc3cc(OCCCN4CCN(C)CC4)c(OC)cc23)c(Cl)cc1Cl [SKI-606]
[11]
  antiproliferative activity: potent antiproliferative activity
